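Growth conditions: 96-well plates. Treatment: test compound, 48 hours, 5 concentrations. Analysis: linear interpolation between bracketing concentrations; unreached endpoints set to highest concentration. Here, GI50 denotes the concentration required for 50% inhibition of growth.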 Active and inactive are the calls of the source. Rule as the data show it: active = GI50 up to about 1.1 µM and inactive = higher.
How the values were obtained:
Test in all cases: NCI tumour cell line growth inhibition, 48 h
DU-145 = tested on: DU-145
UACC-62 = tested on: UACC-62
SF-268 = tested on: SF-268
HCT-116 = tested on: HCT-116
OVCAR-8 = tested on: OVCAR-8
SW-620 = tested on: SW-620
OVCAR-5 = tested on: OVCAR-5
HCT-15 = tested on: HCT-15
K562 = tested on: K562
PC-3 = tested on: PC-3
NCI/ADR-RES = tested on: NCI/ADR-RES
COLO 205 = tested on: COLO 205
SK-OV-3 = tested on: SK-OV-3
LOX IMVI = tested on: LOX IMVI
SNB-75 = tested on: SNB-75
HOP-62 = tested on: HOP-62
UACC-257 = tested on: UACC-257
CCRF-CEM = tested on: CCRF-CEM
MDA-MB-231 = tested on: MDA-MB-231
NCI-H226 = tested on: NCI-H226
U-251 = tested on: U-251
SK-MEL-5 = tested on: SK-MEL-5
SN12C = tested on: SN12C
MDA-N = tested on: MDA-N
BT-549 = tested on: BT-549
MDA-MB-435 = tested on: MDA-MB-435
CAKI-1 = tested on: CAKI-1
OVCAR-4 = tested on: OVCAR-4
SR = tested on: SR
RPMI-8226 = tested on: RPMI-8226
EKVX = tested on: EKVX
SK-MEL-28 = tested on: SK-MEL-28
NCI-H460 = tested on: NCI-H460
SK-MEL-2 = tested on: SK-MEL-2
UO-31 = tested on: UO-31
NCI-H522 = tested on: NCI-H522
IGROV-1 = tested on: IGROV-1
786-0 = tested on: 786-0
SF-295 = tested on: SF-295
A498 = tested on: A498
HT-29 = tested on: HT-29
SNB-19 = tested on: SNB-19
Malme-3M = tested on: Malme-3M
SF-539 = tested on: SF-539
RXF 393 = tested on: RXF 393
KM12 = tested on: KM12
MOLT-4 = tested on: MOLT-4
NCI-H23 = tested on: NCI-H23
M14 = tested on: M14
A549 = tested on: A549
TK-10 = tested on: TK-10
HCC 2998 = tested on: HCC 2998
ACHN = tested on: ACHN
OVCAR-3 = tested on: OVCAR-3
MCF7 = tested on: MCF7
HOP-92 = tested on: HOP-92
T47D = tested on: T47D
HL-60 = tested on: HL-60

O=C(OCC(OC(=O)c1ccccc1)C1CC(C2(O)CCCCC2)C(=O)O1)c1ccccc1 (stereo not given)
GI50 (DU-145): > 25 µM (inactive) | GI50 (UACC-62): 0.0462 µM (active) | GI50 (SF-268): > 25 µM (inactive) | GI50 (HCT-116): > 25 µM (inactive) | GI50 (OVCAR-8): > 25 µM (inactive) | GI50 (SW-620): > 25 µM (inactive) | GI50 (OVCAR-5): > 25 µM (inactive) | GI50 (HCT-15): > 25 µM | GI50 (K562): 15.9 µM (inactive) | GI50 (PC-3): > 25 µM (inactive) | GI50 (NCI/ADR-RES): > 25 µM (inactive) | GI50 (COLO 205): > 25 µM (inactive) | GI50 (SK-OV-3): > 25 µM (inactive) | GI50 (LOX IMVI): > 25 µM (inactive) | GI50 (SNB-75): 15.7 µM (inactive) | GI50 (HOP-62): > 25 µM (inactive) | GI50 (UACC-257): > 25 µM (inactive) | GI50 (CCRF-CEM): 13.4 µM (inactive) | GI50 (MDA-MB-231): > 25 µM (inactive) | GI50 (NCI-H226): > 25 µM (inactive) | GI50 (U-251): > 25 µM (inactive) | GI50 (SK-MEL-5): > 25 µM (inactive) | GI50 (SN12C): > 25 µM (inactive) | GI50 (MDA-N): > 25 µM (inactive) | GI50 (BT-549): 0.478 µM (active) | GI50 (MDA-MB-435): > 25 µM (inactive) | GI50 (CAKI-1): > 25 µM (inactive) | GI50 (OVCAR-4): > 25 µM (inactive) | GI50 (SR): 7.59 µM (inactive) | GI50 (RPMI-8226): > 25 µM (inactive) | GI50 (EKVX): > 25 µM (inactive) | GI50 (SK-MEL-28): > 25 µM (inactive) | GI50 (NCI-H460): 9.18 µM (inactive) | GI50 (SK-MEL-2): > 25 µM (inactive) | GI50 (UO-31): 0.0181 µM (active) | GI50 (NCI-H522): > 25 µM (inactive) | GI50 (IGROV-1): > 25 µM (inactive) | GI50 (786-0): > 25 µM (inactive) | GI50 (SF-295): > 25 µM (inactive) | GI50 (A498): > 25 µM (inactive) | GI50 (HT-29): 14 µM (inactive) | GI50 (SNB-19): > 25 µM (inactive) | GI50 (Malme-3M): > 25 µM (inactive) | GI50 (SF-539): > 25 µM (inactive) | GI50 (RXF 393): > 25 µM (inactive) | GI50 (KM12): 11 µM (inactive) | GI50 (MOLT-4): 6.64 µM (inactive) | GI50 (NCI-H23): 0.05 µM (active) | GI50 (M14): > 25 µM (inactive) | GI50 (A549): > 25 µM (inactive) | GI50 (TK-10): > 25 µM (inactive) | GI50 (HCC 2998): > 25 µM (inactive) | GI50 (ACHN): > 25 µM (inactive) | GI50 (OVCAR-3): > 25 µM (inactive) | GI50 (MCF7): 21 µM (inactive)

COc1cc(C(=O)N2CCN(C(=O)c3cc(OC)c(OC)c(OC)c3)C2=S)cc(OC)c1OC
GI50 (RPMI-8226): 3.66 µM (inactive) | GI50 (UO-31): 0.234 µM (active)

COc1ccc(-c2c(C(C)=O)c(-c3ccccc3)n(C3OC(COC(C)=O)C(OC(C)=O)C(OC(C)=O)C3OC(C)=O)c(=S)c2C#N)cc1 (stereo not given)
GI50 (DU-145): > 100 µM (inactive) | GI50 (UACC-62): > 100 µM (inactive) | GI50 (SF-268): > 100 µM (inactive) | GI50 (HCT-116): > 100 µM (inactive) | GI50 (OVCAR-8): > 100 µM (inactive) | GI50 (SW-620): > 100 µM (inactive) | GI50 (OVCAR-5): > 100 µM (inactive) | GI50 (HCT-15): > 100 µM | GI50 (K562): > 100 µM (inactive) | GI50 (NCI/ADR-RES): > 100 µM (inactive) | GI50 (COLO 205): > 100 µM (inactive) | GI50 (SK-OV-3): > 100 µM (inactive) | GI50 (LOX IMVI): > 100 µM (inactive) | GI50 (SNB-75): 80.9 µM (inactive) | GI50 (HOP-62): > 100 µM (inactive) | GI50 (UACC-257): > 100 µM (inactive) | GI50 (CCRF-CEM): > 100 µM (inactive) | GI50 (MDA-MB-231): > 100 µM (inactive) | GI50 (NCI-H226): > 100 µM (inactive) | GI50 (U-251): > 100 µM (inactive) | GI50 (SK-MEL-5): > 100 µM (inactive) | GI50 (SN12C): > 100 µM (inactive) | GI50 (MDA-N): > 100 µM (inactive) | GI50 (MDA-MB-435): > 100 µM (inactive) | GI50 (CAKI-1): > 100 µM (inactive) | GI50 (OVCAR-4): > 100 µM (inactive) | GI50 (SR): > 100 µM (inactive) | GI50 (EKVX): > 100 µM (inactive) | GI50 (SK-MEL-28): > 100 µM (inactive) | GI50 (NCI-H460): > 100 µM (inactive) | GI50 (HOP-92): 19.2 µM (inactive) | GI50 (NCI-H522): > 100 µM (inactive) | GI50 (IGROV-1): > 100 µM (inactive) | GI50 (786-0): > 100 µM (inactive) | GI50 (SF-295): > 100 µM (inactive) | GI50 (A498): > 100 µM (inactive) | GI50 (HT-29): > 100 µM (inactive) | GI50 (T47D): > 100 µM (inactive) | GI50 (SNB-19): > 100 µM (inactive) | GI50 (Malme-3M): > 100 µM (inactive) | GI50 (SF-539): > 100 µM (inactive) | GI50 (RXF 393): > 100 µM (inactive) | GI50 (KM12): > 100 µM (inactive) | GI50 (MOLT-4): > 100 µM (inactive) | GI50 (NCI-H23): > 100 µM (inactive) | GI50 (M14): > 100 µM (inactive) | GI50 (HL-60): > 100 µM (inactive) | GI50 (A549): > 100 µM (inactive) | GI50 (TK-10): > 100 µM (inactive) | GI50 (HCC 2998): > 100 µM (inactive) | GI50 (ACHN): > 100 µM (inactive) | GI50 (OVCAR-3): > 100 µM (inactive) | GI50 (MCF7): > 100 µM (inactive)
